Calls of active or inactive are those of the source.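 The calls were made as follows: active = at least two of three replicate dose series yielding a converging curve fit, whether well or thinly supported; inactive = the rest.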

The target of this assay is D(1A) dopamine receptor (Homo sapiens) (UniProt P21728). Put plainly: concentration-dependent D1 reporter signal change – cell-based, CRE-luciferase, HEK293, dopamine EC30, D1 allosteric modulator project, dose response (AID 858).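 Also: HEK 293 cells bearing human D1 receptor stimulated by dopamine at its EC30; luciferase light from a cAMP response element reporter gene.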
Sequence of D(1A) dopamine receptor (Homo sapiens) (P21728 whole entry, looked up): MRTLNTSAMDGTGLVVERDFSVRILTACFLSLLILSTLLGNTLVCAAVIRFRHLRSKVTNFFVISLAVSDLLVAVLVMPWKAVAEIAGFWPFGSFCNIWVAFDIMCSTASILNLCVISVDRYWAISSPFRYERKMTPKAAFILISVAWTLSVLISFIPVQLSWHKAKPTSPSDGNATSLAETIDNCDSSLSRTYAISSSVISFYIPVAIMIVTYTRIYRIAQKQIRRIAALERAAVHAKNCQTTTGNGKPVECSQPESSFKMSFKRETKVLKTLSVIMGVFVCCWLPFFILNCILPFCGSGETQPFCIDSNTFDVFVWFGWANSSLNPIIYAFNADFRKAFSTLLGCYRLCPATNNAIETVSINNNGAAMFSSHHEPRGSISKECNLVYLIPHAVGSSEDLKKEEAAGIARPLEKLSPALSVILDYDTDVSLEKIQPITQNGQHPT
Regarding `O=S1(=O)N=C(N2CCc3ccccc3C2)c2ccccc21`, the outcome was inactive.

With `CCOc1ccc(N/C(SC)=C(/C#N)C(N)=O)cc1`, the outcome was inactive. Same read-out and setting: in the case of `Cn1nnnc1SCC(=O)Nc1nc(-c2ccccc2)c(-c2ccccc2)o1` it was “inactive”; in that of `Cc1ccc(Oc2ccccc2)c(NC=O)c1`, “inactive”; in that of `CCN(CC)CCOc1c(Br)ccc2c1sc1nc3n(c(=O)c12)CCC3`, “inactive”. On the same count and under the same terms, with `CCOC(=O)c1c(-c2ccncc2)csc1N` the entry was “inactive”.

On to `COc1ccc(-c2coc3cc(O)cc(O)c3c2=O)cc1`, for which the result was inactive. Still for that read-out and setting: in the case of `CCCc1cc(=O)[nH]c(NCc2ccc(Cl)cc2)n1` it was “inactive”; in that of `COc1cccc(-c2nnc(SCC(=O)Nc3cc(C)on3)o2)c1`, “inactive”; in that of `Cn1c(Cn2c(=O)sc3ccccc32)nnc1SCC(=O)N1CCOCC1`, “inactive”. Same read-out and setting: in the case of `c1ccc(Cn2nnc3c(N4CCc5ccccc54)ncnc32)cc1` it was “inactive”; in that of `O=C1COc2ccc(C(=O)c3ccccc3)cc2CN1`, “inactive”; in that of `CCOC(=O)c1[nH]c2ccccc2c1NC(=O)C(C)(C)C`, “inactive”. The same measure, in the same setting: with `COc1cccc(-c2nn3c(-c4cc(C)[nH]n4)nnc3s2)c1` the entry was “inactive”; with `Cc1ccc(S(=O)(=O)N2CCN(C(=O)COC(=O)c3cc(C)oc3C)CC2)cc1`, “inactive”; with `CC(C)Cn1c(-c2cccs2)nc2nc3ccccc3nc21`, “inactive”. With `O=C(CCCc1nc2ccccc2s1)N1CCN(S(=O)(=O)c2cccs2)CC1`, the outcome was inactive. In the case of `CC1=CC(C)(C)N=C(NC#N)N1`, the result was inactive. `CCOc1ccc(C2Oc3nc(SC)nnc3-c3ccccc3N2C(C)=O)cc1OC` (stereo not drawn): the EC50 (commonly the concentration needed to bring the measured effect to its halfway point) was 2.38 µM. On the same count and under the same terms, in the case of `CCCCNC(=O)Nc1ccc(Br)cn1` it was 2.43 µM. For the compound `CCCn1c(=O)c2ccccc2n2c(SCc3nc4ccccc4s3)nnc12`, the outcome was inactive. Same read-out and setting: in the case of `O=c1cc(-c2ccccc2)c2c([nH]1)CCCC2` it was “inactive”; in that of `CN(C)c1oc(-c2ccccc2Cl)nc1C#N`, “inactive”. As to `Cn1cccc1C1NC(=O)c2c(sc3c2CCC(C(C)(C)C)C3)N1` (stereo not drawn), the result was inactive.

With `O=C(CC1SC(=NC2CCCCC2)NC1=O)Nc1ccccc1` (stereo not drawn), the result was inactive.

With `N#Cc1c(N)nc(-c2ccccc2)nc1-c1ccccc1`, the EC50 was 1.17 µM. For the compound `Nc1nc(SCC(=O)OCc2ccccc2)[nH]c(=O)c1NC(=O)c1ccco1`, the result was inactive.

For the compound `COc1ccc(CCN2CCCn3c2nc2c3c(=O)n(Cc3ccccc3F)c(=O)n2C)cc1OC`, the result was inactive.

For `Cc1ccc(CCNS(=O)(=O)c2cnc[nH]2)cc1`, the result was inactive. The same measure, in the same setting: in the case of `COC(=O)c1c(-c2ccccc2)csc1NC(=O)c1ccco1` it was “inactive”; in that of `CCOC(=O)c1c(C)c(C(=O)NCc2ccc3c(c2)OCO3)c(C)n1C`, “inactive”; in that of `CCCCNC(=O)c1cc(-c2ccc(OC)c(OC)c2)on1`, “inactive”. For `Cc1cc2cc(CN(CCN3CCOCC3)C(=O)Nc3ccccc3F)c(=O)[nH]c2cc1C`, the outcome was inactive.

Regarding `Cn1c2c(c3ccccc31)CC/C2=N\O`, the result was inactive.

Turning to `Cc1ccc2c(c1)-c1c(ssc1=S)C(C)(C)N2C(=O)CSc1nncn1C`, the outcome was inactive. On to `C=CCc1c(C)nc(SC)nc1Nc1ccc(C(=O)O)cc1`, for which the outcome was inactive. Still for that read-out and setting: with `COc1ccccc1NC(=O)CC1Nc2ccccc2NC1=O` (stereo not drawn) the entry was “inactive”; with `COC(=O)c1sc(=S)sc1C(=O)OC`, “inactive”; with `COc1ccc2[nH]c(=O)c(CN(Cc3cccs3)Cc3nnnn3C(C)(C)C)cc2c1`, “inactive”. Still for that read-out and setting: in the case of `N#Cc1nc(-c2ccc(F)cc2)oc1NCc1ccccc1` it was “inactive”; in that of `Cc1cc(C)c(C#N)c(SCc2ccc(C#N)cc2)n1`, “inactive”; in that of `Cc1sc2nc(C3CC3)nc(NCCNS(C)(=O)=O)c2c1C`, “inactive”.

Consider `CCCCn1c(=NC(=O)c2ccco2)c(C(=O)OCC)cc2c(=O)n3ccccc3nc21`, for which the result was inactive. As for `COc1ccc(NC(=O)c2ccc(NS(=O)(=O)c3c(C)noc3C)cc2)cc1OC`, the result was inactive. Same read-out and setting: in the case of `N#CCSc1nc2c(sc(=S)n2Cc2ccco2)c(=O)n1-c1ccc(F)cc1` it was “inactive”; in that of `Cc1nc2ccc(CCO)cc2s1`, “inactive”; in that of `COc1ccc(-c2coc3cc(O)ccc3c2=O)cc1OC`, “inactive”. On the same count and under the same terms, in the case of `N#CCCN1CCN(S(=O)(=O)c2ccc(S(=O)(=O)NC3CCCCC3)cc2)CC1` it was “inactive”.

Regarding `Cn1c(SCc2ccon2)nc2ccccc2c1=O`, the result was inactive. In the case of `COC(=O)c1ccc(CSc2nc3c(cnn3-c3ccc(F)cc3)c(=O)[nH]2)o1`, the 50% effective concentration (EC50) was 2.49 µM.

Turning to `COc1cc(OC)cc(C(=O)Nn2cc(C(=O)N3CCN(C)CC3)c3ccccc3c2=O)c1`, the outcome was inactive. On the same count and under the same terms, in the case of `Clc1ccccc1-c1nnc2sc(-c3ccc(Br)o3)nn12` it was “inactive”; in that of `CC(=O)c1cc(C#N)c(SCC(=O)OC(C)(C)C)nc1C`, “inactive”. Regarding `COc1ccc2c(c1)C(=O)N(c1ccccc1OC)C(=O)C2(C)C`, the result was inactive. On to `O=C(c1ccco1)N1CCN(c2nc(C3CC3)nc3sc4c(c23)CCCC4)CC1`, for which the outcome was inactive. Still for that read-out and setting: with `CSc1oc(-c2ccco2)nc1S(=O)(=O)c1ccc(F)cc1` the entry was “inactive”; with `Cc1cc(-c2ccccc2)c(C#N)c(SCC(N)=O)n1`, “inactive”. In the case of `CCn1c(SCc2cccnc2)nc2c1c(=O)n(C)c(=O)n2C`, the result was inactive.

As to `CCOC(=O)c1nn(-c2ccccc2C)c(=O)c(C#N)c1C`, the result was inactive.

For `COC(=O)c1ccc(OCCn2cnc3ccccc3c2=O)cc1`, the outcome was inactive. On the same count and under the same terms, with `CCOc1ccccc1NC(=O)CN(C)S(=O)(=O)c1cccc2nsnc12` the entry was “inactive”. On to `CCCn1c2c(c(O)c(C(=O)NC)c1=O)CCCC2`, for which the result was inactive. Still for that read-out and setting: with `CCn1nc(C(=O)NC2=NCCS2)c2ccccc2c1=O` the entry was “inactive”; with `CCCOc1ccccc1NC(=O)c1ccc(N)cc1`, “inactive”; with `CCC(C)Nc1nc(OC)nc(N(C)C#N)n1` (stereo not drawn), “inactive”. For `CCn1ncc(C2=NOC(C(=O)Nc3ccc4c(c3)OCO4)C2)c1C` (stereo not drawn), the outcome was inactive. Same read-out and setting: with `CCSc1cnc(-c2ccccc2)n1CC` the entry was “inactive”; with `Cc1ccc(OCCN2C(=O)OC(C)(C)C2(C)O)cc1` (stereo not drawn), “inactive”. Same read-out and setting: with `O=C(c1cccn2c(=O)c3cc(Cl)ccc3nc12)N1CCN(Cc2ccc3c(c2)OCO3)CC1` the entry was “inactive”; with `CSC1=NCCN1C(=O)c1ccc(Br)o1`, “inactive”. Still for that read-out and setting: with `CCOC(=O)N1CCN(C(=O)CCCn2c(=S)[nH]c3ccccc3c2=O)CC1` the entry was “inactive”. Regarding `CC(C)n1c(C(O)c2ccccc2)nc2ccccc21` (stereo not drawn), the result was inactive. The same measure, in the same setting: with `CCN1C(=O)c2cccc3c(S(=O)(=O)Nc4ccccn4)ccc1c23` the entry was “inactive”.
